Source: US10294207B2, “Pyrazole derivatives as TNIK, IKKϵ and TBK1 inhibitor and pharmaceutical composition comprising same” (GREEN CROSS CORPORATION, priority 2015, dated 2019)
Counter-ions that a name gives are not always drawn.

Target: T1, TBK1 (Homo sapiens, UniProt Q9UHD2)
T1 construct: purchased Promega V3991
T1 sequence (Q9UHD2 1-729): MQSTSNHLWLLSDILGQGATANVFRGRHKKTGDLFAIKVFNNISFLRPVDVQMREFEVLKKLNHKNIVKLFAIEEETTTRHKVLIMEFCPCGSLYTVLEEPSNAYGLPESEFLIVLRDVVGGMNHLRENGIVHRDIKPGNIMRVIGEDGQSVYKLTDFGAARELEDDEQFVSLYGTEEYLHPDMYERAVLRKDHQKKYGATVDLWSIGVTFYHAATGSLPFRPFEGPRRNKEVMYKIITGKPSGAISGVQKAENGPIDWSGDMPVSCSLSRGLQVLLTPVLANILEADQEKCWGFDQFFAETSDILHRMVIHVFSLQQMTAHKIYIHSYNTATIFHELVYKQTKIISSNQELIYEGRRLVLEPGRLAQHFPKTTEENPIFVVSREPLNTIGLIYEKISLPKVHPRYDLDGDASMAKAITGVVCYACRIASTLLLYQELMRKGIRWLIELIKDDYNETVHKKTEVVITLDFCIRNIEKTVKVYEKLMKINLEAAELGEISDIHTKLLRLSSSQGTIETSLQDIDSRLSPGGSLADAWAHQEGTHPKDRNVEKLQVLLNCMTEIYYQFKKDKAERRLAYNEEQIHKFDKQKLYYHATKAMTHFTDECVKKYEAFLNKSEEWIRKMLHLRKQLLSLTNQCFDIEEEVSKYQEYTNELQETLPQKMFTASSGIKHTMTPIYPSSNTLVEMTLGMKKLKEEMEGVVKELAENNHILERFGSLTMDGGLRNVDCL
Experiment: TBK1 inhibition, ADP-Glo Kinase Assay
Type: biochemical
Conditions: luminometer
Description: Inhibition activities on TNIK, IKKε and TBK1 were evaluated using the compounds of Examples 1 to 254.
The inhibition activities on TNIK, IKKε and TBK1 were measured by a luminometer, TNIK/IKKε/TBK1 Kinase Enzyme System (Promega, Ca# V4158; Invitrogen, PR8031B, Promega, Ca# V3991) and ADP-Glo Kinase Assay using ADP-Glo™ Kinase Analysis Kit (Promega, Ca# V9101) and a kinase reaction buffer [40 mM Tris(pH 7.5), 20 mM MgCl2, 0.1 mg/mL BSA] in accordance with the manufacturer's protocol.

| SMILES | IC50 [µM] |
| --- | --- |
| COc1ccc(C(=O)Nc2n[nH]c3ccc(C(=O)N(C)Cc4cccs4)cc23)cc1 [Example 4, 3-(4-Methoxybenzamido)-N-methyl-N-(thiophen-2-ylmethyl)-1H-indazole-5-carboxamide] | 0.83 |
| CC(C)(C)c1ccc(C(=O)Nc2n[nH]c3ccc(C(=O)NCc4cccs4)cc23)cc1 [Example 10, 3-(4-tert-Butylbenzamido)-N-(thiophen-2-ylmethyl)-1H-indazole-5-carboxamide] | 0.03 |
| COc1ccc(C(=O)Nc2n[nH]c3ccc(NCc4cccs4)cc23)cc1 [Example 11, 4-Methoxy-N-(5-((thiophen-2-ylmethyl)amino)-1H-indazol-3-yl)benzamide] | 0.89 |
| O=C(NCc1cccs1)c1ccc2[nH]nc(NC(=O)c3ccccc3)c2c1 [Example 13, 3-Benzamido-N-(thiophen-2-ylmethyl)-1H-indazole-5-carboxamide] | 0.036 |
| CC(NC(=O)c1ccc2[nH]nc(NC(=O)c3ccc(F)cc3)c2c1)c1cccs1 (stereo not shown) [Example 14, 3-(4-Fluorobenzamido)-N-(1-(thiophen-2-yl)ethyl)-1H-indazole-5-carboxamide] | 0.042 |
| O=C(NCc1ccncc1)c1ccc2[nH]nc(NC(=O)c3ccc(F)cc3)c2c1 [Example 29, 3-(4-Fluorobenzamido)-N-(pyridin-4-ylmethyl)-1H-indazole-5-carboxamide] | 0.28 |
| O=C(Nc1n[nH]c2ccc(CNCc3cccs3)cc12)c1ccc(F)cc1 [Example 31, 4-Fluoro-N-(5-(((thiophen-2-ylmethyl)amino)methyl)-1H-indazol-3-yl)benzamide Hydrochloride] | > 10 |
| O=C(NCc1ccncc1)c1ccc2[nH]nc(NC(=O)c3ccc(N4CCOCC4)cc3)c2c1 [Example 120, 3-(4-Morpholinobenzamido)-N-(pyridin-4-ylmethyl)-1H-indazole-5-carboxamide] | 0.019 |
| O=C(NCc1cccs1)c1ccc2[nH]nc(NC(=O)c3ccc(NC4CCCCC4)cc3)c2c1 [Example 162, 3-(4-(Cyclohexylamino)benzamido)-N-(thiophen-2-ylmethyl)-1H-indazole-5-carboxamide] | 0.08 |
| O=C(NCc1cccs1)c1ccc2[nH]nc(NC(=O)c3ccc(NCC4CCCCC4)cc3)c2c1 [Example 166, 3-(4-((Cyclohexylmethyl)amino)benzamido)-N-(thiophen-2-ylmethyl)-1H-indazole-5-carboxamide] | 0.26 |
| O=C(NCc1cccs1)c1ccc2[nH]nc(NC(=O)c3ccc(N4CCOCC4)cc3N3CCOCC3)c2c1 [Example 168, 3-(2,4-Dimorpholinobenzamido)-N-(thiophen-2-ylmethyl)-1H-indazole-5-carboxamide] | 6.6 |
| O=C(NCc1cccs1)c1ccc2[nH]nc(NC(=O)c3ccc(NCCn4cccc4)cc3)c2c1 [Example 169, 3-(4-((2-(1H-Pyrrol-1-yl)ethyl)amino)benzamido)-N-(thiophen-2-ylmethyl)-1H-indazole-5-carboxamide] | 0.03 |
| O=C(NCc1cccs1)c1ccc2[nH]nc(NC(=O)c3ccc(O)cc3)c2c1 [Example 200, 3-(4-Hydroxybenzamido)-N-(thiophen-2-ylmethyl)-1H-indazole-5-carboxamide] | 0.093 |
| O=C(NCc1cccs1)c1ccc2[nH]nc(NC(=O)c3ccc([N+](=O)[O-])cc3)c2c1 [Example 203, 3-(4-Nitrobenzamido)-N-(thiophen-2-ylmethyl)-1H-indazole-5-carboxamide] | 0.075 |
| O=C(NCc1cccs1)c1ccc2[nH]nc(NC(=O)c3cccc([N+](=O)[O-])c3)c2c1 [Example 204, 3-(3-Nitrobenzamido)-N-(thiophen-2-ylmethyl)-1H-indazole-5-carboxamide] | 0.077 |
| O=C(NCc1cccs1)c1ccc2[nH]nc(NC(=O)c3ccc(NC(=O)C4CCC4)cc3)c2c1 [Example 206, 3-(4-(Cyclobutanecarboxamido)benzamido)-N-(thiophen-2-ylmethyl)-1H-indazole-5-carboxamide] | 0.026 |
| O=C(NCc1cccs1)c1ccc2[nH]nc(NC(=O)c3ccc(NC(=O)C4(C(F)(F)F)CC4)cc3)c2c1 [Example 207, N-(Thiophen-2-ylmethyl)-3-(4-(1-(trifluoromethyl)cyclopropanecarboxamido)benzamido)-1H-indazole-5-carboxamide] | 0.038 |
| CC(C)(C)OC(=O)N1CCC[C@H]1C(=O)Nc1ccc(C(=O)Nc2n[nH]c3ccc(C(=O)NCc4cccs4)cc23)cc1 [Example 210, tert-Butyl (S)-2-((4-((5-((thiophen-2-ylmethyl)carbamoyl)-1H-indazol-3-yl)carbamoyl)phenyl)carbamoyl)pyrrolidine-1-carboxylate] | 0.12 |

The next lines start with the values.

| IC50 [µM] | SMILES |
| --- | --- |
| 8.4 | COc1ccc(C(=O)Nc2n[nH]c3ccc(C(=O)N4CCc5ccsc5C4)cc23)cc1 [Example 5, 4-Methoxy-N-(5-(4,5,6,7-tetrahydrothieno[2,3-c]pyridine-6-carbonyl)-1H-indazol-3-yl)benzamide] |
| 0.025 | CSc1ccc(C(=O)Nc2n[nH]c3ccc(C(=O)NCc4cccs4)cc23)cc1 [Example 6, 3-(4-(Methylthio)benzamido)-N-(thiophen-2-ylmethyl)-1H-indazole-5-carboxamide] |
| 0.43 | COc1ccc(C(=O)Nc2n[nH]c3ccc(-c4ccc(CN5CCOCC5)s4)cc23)cc1 [Example 12, 4-Methoxy-N-(5-(5-(morpholinomethyl)thiophen-2-yl)-1H-indazol-3-yl)benzamide] |
| 0.013 | CCC(NC(=O)c1ccc2[nH]nc(NC(=O)c3ccc(F)cc3)c2c1)c1cccs1 (stereo not shown) [Example 17, 3-(4-Fluorobenzamido)-N-(1-(thiophen-2-yl)propyl)-1H-indazole-5-carboxamide] |
| 0.036 | O=C(Nc1n[nH]c2ccc(C(=O)NC(c3cccs3)C3CC3)cc12)c1ccc(F)cc1 (stereo not shown) [Example 30, N-(Cyclopropyl(thiophen-2-yl)methyl)-3-(4-fluorobenzamido)-1H-indazole-5-carboxamide] |
| 0.089 | O=C(NCc1cccs1)c1ccc2[nH]nc(NC(=O)c3ccc(F)cc3)c2c1 [Example 36, 3-(4-Fluorobenzamido)-N-(thiophen-2-ylmethyl)-1H-indazole-5-carboxamide] |
| > 10 | O=C(NCc1cccs1)c1ccc2[nH]nc(NS(=O)(=O)c3ccccc3)c2c1 [Example 39, 3-(Phenylsulfonamido)-N-(thiophen-2-ylmethyl)-1H-indazole-5-carboxamide] |
| 0.2 | CN(Cc1cccs1)C(=O)c1ccc2[nH]nc(NC(=O)c3ccc(N4CCOCC4)cc3)c2c1 [Example 42, N-Methyl-3-(4-morpholinobenzamido)-N-(thiophen-2-ylmethyl)-1H-indazole-5-carboxamide] |
| 0.0054 | O=C(NCc1cccs1)c1ccc2[nH]nc(NC(=O)c3ccc(NCCC4CCOCC4)cc3)c2c1 [Example 160, 3-(4-((2-(Tetrahydro-2H-pyran-4-yl)ethyl)amino)benzamido)-N-(thiophen-2-ylmethyl)-1H-indazole-5-carboxamide] |
| 0.76 | CCCCCCNc1ccc(C(=O)Nc2n[nH]c3ccc(C(=O)NCc4cccs4)cc23)cc1 [Example 161, 3-(4-(Hexylamino)benzamido)-N-(thiophen-2-ylmethyl)-1H-indazole-5-carboxamide] |
| 0.036 | O=C(NCc1cccs1)c1ccc2[nH]nc(NC(=O)c3ccc(NC4CCCC4)cc3)c2c1 [Example 163, 3-(4-(Cyclopentylamino)benzamido)-N-(thiophen-2-ylmethyl)-1H-indazole-5-carboxamide] |
| 5.6 | O=C(NCc1cccs1)c1ccc2[nH]nc(NC(=O)c3ccc(NC4CCCCCC4)cc3)c2c1 [Example 164, 3-(4-(Cycloheptylamino)benzamido)-N-(thiophen-2-ylmethyl)-1H-indazole-5-carboxamide] |
| 0.43 | O=C(NCc1cccs1)c1ccc2[nH]nc(NC(=O)c3ccc(NC4CCCCCCC4)cc3)c2c1 [Example 165, 3-(4-(Cyclooctylamino)benzamido)-N-(thiophen-2-ylmethyl)-1H-indazole-5-carboxamide] |
| > 10 | CN1CCN(c2ccc(C(=O)Nc3n[nH]c4ccc(C(=O)NCc5cccs5)cc34)c(F)c2)CC1 [Example 170, 3-(2-Fluoro-4-(4-methylpiperazin-1-yl)benzamido)-N-(thiophen-2-ylmethyl)-1H-indazole-5-carboxamide] |
| 0.003 | Nc1ccc(C(=O)Nc2n[nH]c3ccc(C(=O)NCc4cccs4)cc23)cc1 [Example 205, 3-(4-Aminobenzamido)-N-(thiophen-2-ylmethyl)-1H-indazole-5-carboxamide] |
| 0.027 | O=C1CC(C(=O)Nc2ccc(C(=O)Nc3n[nH]c4ccc(C(=O)NCc5cccs5)cc34)cc2)C1 [Example 208, 3-(4-(3-Oxocyclobutanecarboxamido)benzamido)-N-(thiophen-2-ylmethyl)-1H-indazole-5-carboxamide] |
